Results as given in patent US9115083B2 (Simpson Biotech Co., Ltd, priority 2011, dated 2015).

Biological target: HCV NS3/4A protease (Hepatitis C virus genotype 1a (isolate H77) (HCV), UniProt P27958)
Assay: HCV protease assay (fluorimetric, FRET substrate)
Assay type: biochemical
Settings: HCV NS3/4A protease, 30 min at 37° C., triplicate; read-out: IC50 against HCV protease
Excerpt: The HCV protease assay herein was applied to investigate the HCV-protease inhibitory activity of the prepared compounds as described above. The method of the HCV protease assay was described in D. T. Phuong, C. M. Ma, M. Hattori and J. S. Jin: Inhibitory Effects of Antrodins A-E from Antrodia cinnamomea and Their Metabolites on Hepatitis C Virus Protease. Phytotherapy Research, 23, 582-584, 2009. Two micro liters of a compound solution (using DMSO as solvent) was placed in 384 well micro plate, then 8 μl of HCV NS3/4A protease ([…]) was added to the well containing a sample and the plate was agitated. Finally, 10 μL of freshly prepared substrate (Ac-Asp-Glu-Dap(QXL™520)-Glu-Glu-Abu-COO-Ala-Ser-Cys(5-FAMsp)-NH2) (100× dilution of a DMSO stock solution) was added with sequential rotational shaking. The reaction mixture was incubated for 30 min at 37° C. The fluorimetric analyses were performed on an automated TECAN GENios plate reader with excitation wavelength at 485 nm and emission 530 nm. Each test compound was carried out in triplicate. The HCV—PR inhibition (%) was calculated by using the following equation: % inhibition=(Fvehicle control−[…])×100/Fvehicle control (Where F is the fluorescence value of vehicle control or of sample minus the fluorescence of the substrate control).

Sequence of HCV NS3/4A protease (P27958 1027-1657): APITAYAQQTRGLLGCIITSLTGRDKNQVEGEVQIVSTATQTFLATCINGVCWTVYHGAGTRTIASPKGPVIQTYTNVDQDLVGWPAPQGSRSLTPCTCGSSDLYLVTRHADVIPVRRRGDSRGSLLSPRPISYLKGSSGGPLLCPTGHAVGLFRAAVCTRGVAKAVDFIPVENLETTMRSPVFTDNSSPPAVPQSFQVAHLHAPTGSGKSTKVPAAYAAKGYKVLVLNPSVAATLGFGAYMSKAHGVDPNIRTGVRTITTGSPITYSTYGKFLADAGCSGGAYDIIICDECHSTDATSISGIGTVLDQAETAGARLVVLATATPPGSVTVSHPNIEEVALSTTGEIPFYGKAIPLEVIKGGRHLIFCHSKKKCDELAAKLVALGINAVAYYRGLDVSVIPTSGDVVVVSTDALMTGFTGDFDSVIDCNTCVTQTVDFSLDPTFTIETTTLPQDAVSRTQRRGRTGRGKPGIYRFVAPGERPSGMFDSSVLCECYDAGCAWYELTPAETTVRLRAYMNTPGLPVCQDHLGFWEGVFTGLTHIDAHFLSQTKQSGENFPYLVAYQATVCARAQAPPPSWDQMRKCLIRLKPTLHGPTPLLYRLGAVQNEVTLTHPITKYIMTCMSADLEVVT
Sequence of HCV NS3/4A protease (P27958 1658-1711 partner): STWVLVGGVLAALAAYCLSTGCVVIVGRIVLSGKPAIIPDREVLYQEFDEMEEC

First: CCOC(=O)C(Cc1ccccc1)NC(=O)C(Cc1ccccc1)N1C(=O)C(CC(C)C)=C(c2ccc(OCC=C(C)C)cc2)C1=O (stereo not drawn) [Compound A2-2, Ethyl 2-(2-(3-isobutyl-4-(4-(3-methylbut-2-enyloxy)phenyl)-2,5-dioxo-2,5-dihydro-1H-pyrrol-1-yl)-3-phenylpropanamido)-3-phenylpropanoate]
Second: COC(=O)[C@H](CC(C)C)NC(=O)C(Cc1ccccc1)N1C(=O)C(CC(C)C)=C(c2ccc(OCC=C(C)C)cc2)C1=O (stereo partly drawn) [Compound A2-1, Methyl 2-(2-(3-isobutyl-4-(4-(3-methylbut-2-enyloxy)phenyl)-2,5-dioxo-2,5-dihydro-1H-pyrrol-1-yl)-3-phenylpropanamido)-4-methylpentanoate]
The IC50 of the first is lower: 100 µM for the first, over 100 µM for the second.

First: CC(C)CC1C(=O)N(CC(C(=O)C(=O)NC(C)C(=O)O)c2ccccc2)C(=O)C1c1ccc(O)cc1 (stereo not drawn) [KC-4]
Second: CC(C)CC1C(=O)N(CC(=O)C(=O)NC(C)C(=O)O)C(=O)C1c1ccc(O)cc1 (stereo not drawn) [KA-5]
The IC50 of the first is 4.8-fold lower: 14.6 µM for the first, 70 µM for the second.

`CC(C)CC1C(=O)N(CC(=O)C(N)=O)C(=O)C1c1ccc(O)cc1` (stereo not drawn) [KAnh-2] and `CC(C)CC1C(=O)N(C(C)C(=O)O)C(=O)C1c1ccc(O)cc1` (stereo not drawn) [Compound A16] are within 1.5-fold of each other in IC50: 146 µM for the first, 170 µM for the second.

First: CC(C)=CCOc1ccc(C2=C(CC(C)C)C(=O)N(CC(=O)C(N)=O)C2=O)cc1 [KAnh-1]
Second: CC(C)=CCOc1ccc(C2=C(CC(C)C)C(=O)N(CCC(=O)C(N)=O)C2=O)cc1 [KBnh-1]
The IC50 of the first is 13-fold higher: 153 µM for the first, 12.1 µM for the second.

Compared with `CC(C)CC1C(=O)N(C(C(=O)C(N)=O)c2ccccc2)C(=O)C1c1ccc(O)cc1` (stereo not drawn) [KCnh-2], `CC(C)CC1C(=O)N(C(CO)C(=O)N[C@@H](Cc2ccccc2)C(=O)O)C(=O)C1c1ccc(O)cc1` (stereo partly drawn) [Compound A3-16] is 94-fold higher in IC50: 1.4 µM for the first, 132 µM for the second. The first is the more potent here.

Compared with `CC(C)=CCOc1ccc(C2=C(CC(C)C)C(=O)N(CC(=O)C(=O)NC(C)C(=O)OC(C)(C)C)C2=O)cc1` (stereo not drawn) [KA-5-2], `CC(C)=CCOc1ccc(C2=C(CC(C)C)C(=O)N(CC(O)C(=O)O)C2=O)cc1` (stereo not drawn) [KA, 2-Hydroxy-3-(3-isobutyl-4-(4-(3-methylbut-2-enyloxy)phenyl)-2,5-dioxo-2,5-dihydro-1H-pyrrol-1-yl)propanoic acid] is 5.5-fold lower in IC50: 47.6 µM for the first, 8.7 µM for the second. The second is the more potent here.

Going from `CC(C)CC1C(=O)N(CCC(=O)C(=O)NC(Cc2ccccc2)C(=O)O)C(=O)C1c1ccc(O)cc1` (stereo not drawn) [KB-2] to `CC(C)CC1C(=O)N(C(CC(C)C)C(=O)N[C@@H](Cc2ccccc2)C(=O)O)C(=O)C1c1ccc(O)cc1` (stereo partly drawn) [Compound A1-7], the IC50 falls from 100 µM to 27 µM (3.7-fold). The second is the more potent here.

`CSCCC(C(=O)O)N1C(=O)C(CC(C)C)=C(c2ccc(OCC=C(C)C)cc2)C1=O` (stereo not drawn) [Compound A5, 2-(3-Isobutyl-4-(4-(3-methylbut-2-enyloxy)phenyl)-2,5-dioxo-2,5-dihydro-1H-pyrrol-1-yl)-4-(methylthio)butanoic acid] and `CC(C)=CCOc1ccc(C2=C(CC(C)C)C(=O)N(C(C(=O)O)C(C)O)C2=O)cc1` (stereo not drawn) [Compound A6, 3-Hydroxy-2-(3-isobutyl-4-(4-(3-methylbut-2-enyloxy)phenyl)-2,5-dioxo-2,5-dihydro-1H-pyrrol-1-yl)butanoic acid] are within 1.5-fold of each other in IC50: 21 µM for the first, 18 µM for the second.

Going from `COC(=O)C1CCCN1C(=O)C(CC(C)C)N1C(=O)C(CC(C)C)=C(c2ccc(OCC=C(C)C)cc2)C1=O` (stereo not drawn) [Compound A1-4] to `CC(C)=CCOc1ccc(C2=C(CC(C)C)C(=O)N(CCC(=O)C(=O)NC3CC3)C2=O)cc1` [KB-1, N-Cyclopropyl-4-(3-isobutyl-4-(4-(3-methylbut-2-enyloxy)phenyl)-2,5-dioxo-2,5-dihydro-1H-pyrrol-1-yl)-2-oxobutanamide], the IC50 falls from over 100 µM to 61.9 µM.

`CC(C)CC1C(=O)N(C(CCOCO)C(=O)O)C(=O)C1c1ccc(O)cc1` (stereo not drawn) [Compound A17] and `CC(C)CC1C(=O)C(C(c2ccccc2)C(O)C(=O)O)C(=O)C1c1ccc(O)cc1` (stereo not drawn) [KC-t] are within 1.5-fold of each other in IC50: 105 µM for the first, 73 µM for the second.

In the case of `CC(C)=CCOc1ccc(C2=C(CC(C)C)C(=O)N(CCC(O)C(=O)O)C2=O)cc1` (stereo not drawn) [KB, 2-Hydroxy-4-(3-isobutyl-4-(4-(3-methylbut-2-enyloxy)phenyl)-2,5-dioxo-2,5-dihydro-1H-pyrrol-1-yl)butanoic acid], the IC50 is reported as 15.6 µM.
